Experiments:
Experiment in all cases: biochemical
Set-up in all cases: Invitrogen kinase panel: Z'Lyte activity (ATP at Km) or LanthaScreen competitive ATP-site binding, percent inhibition
BMPR1A = BMPR1A (Homo sapiens, UniProt P36894)
CK1_gamma1 = molecular target: T1, CK1_gamma1 (Homo sapiens, UniProt Q9HCP0)
T1 construct: gene CSNK1G1

CLK3 = CLK3 (Homo sapiens, UniProt P49761)
CaMKI_delta = molecular target: T2, CaMKI_delta (Homo sapiens, UniProt Q8IU85)
T2 construct: gene CAMK1D

EphA3 = EphA3 (Homo sapiens, UniProt P29320)
EphA8 = EphA8 (Homo sapiens, UniProt P29322)
EphB1 = EphB1 (Homo sapiens, UniProt P54762)
Flt1 = Flt1 (Homo sapiens, UniProt P17948)
Frk = Frk (Homo sapiens, UniProt P42685)
IRE2 = molecular target: T3, IRE2 (Homo sapiens, UniProt Q76MJ5)
T3 construct: gene ERN2

JAK2 = JAK2 (Homo sapiens, UniProt O60674)
JAK3 = JAK3 (Homo sapiens, UniProt P52333)
Kit = Kit (Homo sapiens, UniProt P10721)
MSSK1 = molecular target: T4, MSSK1 (Homo sapiens, UniProt Q9UPE1)
T4 construct: gene SRPK3

PI3K-G = molecular target: T5, PI3K-G (Homo sapiens, UniProt P48736)
T5 construct: gene PIK3CG

PIM1 = PIM1 (Homo sapiens, UniProt P11309)
PKC_delta = molecular target: T6, PKC_delta (Homo sapiens, UniProt Q05655)
T6 construct: gene PRKCD

PKC_theta = molecular target: T7, PKC_theta (Homo sapiens, UniProt Q04759)
T7 construct: gene PRKCQ

Ron = molecular target: T8, Ron (Homo sapiens, UniProt Q04912)
T8 construct: gene MST1R

Rsk1 = molecular target: T9, Rsk1 (Homo sapiens, UniProt Q15418)
T9 construct: gene RPS6KA1

Rsk3 = molecular target: T10, Rsk3 (Homo sapiens, UniProt Q15349)
T10 construct: gene RPS6KA2

TXK = TXK (Homo sapiens, UniProt P42681)
TrkB = molecular target: T11, TrkB (Homo sapiens, UniProt Q16620)
T11 construct: gene NTRK2

YSK1 = molecular target: T12, YSK1 (Homo sapiens, UniProt O00506)
T12 construct: gene STK25

eEF-2K = molecular target: T13, eEF-2K (Homo sapiens, UniProt O00418)
T13 construct: gene EEF2K

Sequence of EphA8 (P29322 whole entry): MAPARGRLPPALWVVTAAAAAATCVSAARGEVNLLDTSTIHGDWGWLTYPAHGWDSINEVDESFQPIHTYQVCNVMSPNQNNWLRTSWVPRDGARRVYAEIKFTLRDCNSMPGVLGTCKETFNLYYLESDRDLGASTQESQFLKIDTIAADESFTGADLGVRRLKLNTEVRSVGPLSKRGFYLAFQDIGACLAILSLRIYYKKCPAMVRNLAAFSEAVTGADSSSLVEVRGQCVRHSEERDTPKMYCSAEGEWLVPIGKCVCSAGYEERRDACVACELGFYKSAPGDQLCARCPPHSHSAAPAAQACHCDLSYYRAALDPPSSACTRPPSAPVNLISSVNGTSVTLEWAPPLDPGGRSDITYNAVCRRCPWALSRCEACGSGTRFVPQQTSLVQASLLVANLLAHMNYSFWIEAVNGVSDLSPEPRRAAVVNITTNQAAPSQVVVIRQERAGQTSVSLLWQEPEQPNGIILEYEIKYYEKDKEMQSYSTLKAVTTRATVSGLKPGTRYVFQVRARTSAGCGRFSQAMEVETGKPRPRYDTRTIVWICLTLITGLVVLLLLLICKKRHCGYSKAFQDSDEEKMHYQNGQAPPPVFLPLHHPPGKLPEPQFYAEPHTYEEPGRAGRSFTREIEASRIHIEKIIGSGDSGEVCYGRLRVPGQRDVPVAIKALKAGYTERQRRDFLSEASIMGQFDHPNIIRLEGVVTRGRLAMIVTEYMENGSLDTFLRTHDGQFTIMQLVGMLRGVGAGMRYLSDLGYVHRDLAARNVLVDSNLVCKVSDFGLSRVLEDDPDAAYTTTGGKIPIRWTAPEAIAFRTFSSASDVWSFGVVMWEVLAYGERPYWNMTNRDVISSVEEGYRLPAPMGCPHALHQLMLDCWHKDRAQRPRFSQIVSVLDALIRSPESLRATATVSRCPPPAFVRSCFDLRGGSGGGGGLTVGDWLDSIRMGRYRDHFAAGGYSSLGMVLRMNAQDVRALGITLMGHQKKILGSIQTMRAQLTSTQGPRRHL
Sequence of Kit (P10721 whole entry): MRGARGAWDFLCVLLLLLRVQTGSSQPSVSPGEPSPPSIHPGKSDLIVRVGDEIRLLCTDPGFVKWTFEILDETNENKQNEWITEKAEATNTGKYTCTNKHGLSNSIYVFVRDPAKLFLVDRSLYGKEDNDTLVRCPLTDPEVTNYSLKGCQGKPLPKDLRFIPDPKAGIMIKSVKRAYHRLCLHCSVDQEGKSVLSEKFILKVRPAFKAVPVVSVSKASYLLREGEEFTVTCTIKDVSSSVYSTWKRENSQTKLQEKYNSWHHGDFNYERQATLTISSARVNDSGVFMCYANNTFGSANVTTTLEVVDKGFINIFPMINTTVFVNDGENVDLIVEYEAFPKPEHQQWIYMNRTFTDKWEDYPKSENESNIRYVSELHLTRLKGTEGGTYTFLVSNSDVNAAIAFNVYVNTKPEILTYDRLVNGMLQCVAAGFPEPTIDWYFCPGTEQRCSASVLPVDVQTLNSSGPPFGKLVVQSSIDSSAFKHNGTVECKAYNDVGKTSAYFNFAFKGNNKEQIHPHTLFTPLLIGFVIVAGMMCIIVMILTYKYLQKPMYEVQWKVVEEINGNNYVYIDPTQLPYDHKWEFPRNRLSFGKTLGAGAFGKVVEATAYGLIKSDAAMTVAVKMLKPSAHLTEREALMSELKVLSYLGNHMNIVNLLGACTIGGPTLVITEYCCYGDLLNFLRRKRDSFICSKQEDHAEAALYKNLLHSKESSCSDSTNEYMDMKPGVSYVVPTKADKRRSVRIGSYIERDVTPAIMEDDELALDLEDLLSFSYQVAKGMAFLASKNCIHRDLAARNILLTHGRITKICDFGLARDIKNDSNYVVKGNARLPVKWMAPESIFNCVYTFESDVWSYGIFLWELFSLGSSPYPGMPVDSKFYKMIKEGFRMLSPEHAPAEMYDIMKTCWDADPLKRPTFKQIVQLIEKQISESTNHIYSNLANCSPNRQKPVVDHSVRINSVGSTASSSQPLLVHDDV
Sequence of BMPR1A (P36894 whole entry): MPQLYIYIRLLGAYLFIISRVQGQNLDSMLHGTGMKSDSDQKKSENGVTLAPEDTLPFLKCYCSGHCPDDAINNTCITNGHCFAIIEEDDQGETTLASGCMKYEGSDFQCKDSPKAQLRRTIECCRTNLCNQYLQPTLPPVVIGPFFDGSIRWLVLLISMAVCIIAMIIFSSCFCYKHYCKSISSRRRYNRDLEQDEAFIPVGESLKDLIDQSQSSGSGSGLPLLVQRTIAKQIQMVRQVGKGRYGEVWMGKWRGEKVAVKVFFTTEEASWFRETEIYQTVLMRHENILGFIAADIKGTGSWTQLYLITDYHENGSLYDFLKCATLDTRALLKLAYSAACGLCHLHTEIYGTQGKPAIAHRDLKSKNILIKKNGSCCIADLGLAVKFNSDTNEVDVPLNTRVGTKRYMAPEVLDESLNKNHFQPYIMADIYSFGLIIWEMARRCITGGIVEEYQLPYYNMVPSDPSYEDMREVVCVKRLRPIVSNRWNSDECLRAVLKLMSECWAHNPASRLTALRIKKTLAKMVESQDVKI
T5 sequence (P48736 whole entry): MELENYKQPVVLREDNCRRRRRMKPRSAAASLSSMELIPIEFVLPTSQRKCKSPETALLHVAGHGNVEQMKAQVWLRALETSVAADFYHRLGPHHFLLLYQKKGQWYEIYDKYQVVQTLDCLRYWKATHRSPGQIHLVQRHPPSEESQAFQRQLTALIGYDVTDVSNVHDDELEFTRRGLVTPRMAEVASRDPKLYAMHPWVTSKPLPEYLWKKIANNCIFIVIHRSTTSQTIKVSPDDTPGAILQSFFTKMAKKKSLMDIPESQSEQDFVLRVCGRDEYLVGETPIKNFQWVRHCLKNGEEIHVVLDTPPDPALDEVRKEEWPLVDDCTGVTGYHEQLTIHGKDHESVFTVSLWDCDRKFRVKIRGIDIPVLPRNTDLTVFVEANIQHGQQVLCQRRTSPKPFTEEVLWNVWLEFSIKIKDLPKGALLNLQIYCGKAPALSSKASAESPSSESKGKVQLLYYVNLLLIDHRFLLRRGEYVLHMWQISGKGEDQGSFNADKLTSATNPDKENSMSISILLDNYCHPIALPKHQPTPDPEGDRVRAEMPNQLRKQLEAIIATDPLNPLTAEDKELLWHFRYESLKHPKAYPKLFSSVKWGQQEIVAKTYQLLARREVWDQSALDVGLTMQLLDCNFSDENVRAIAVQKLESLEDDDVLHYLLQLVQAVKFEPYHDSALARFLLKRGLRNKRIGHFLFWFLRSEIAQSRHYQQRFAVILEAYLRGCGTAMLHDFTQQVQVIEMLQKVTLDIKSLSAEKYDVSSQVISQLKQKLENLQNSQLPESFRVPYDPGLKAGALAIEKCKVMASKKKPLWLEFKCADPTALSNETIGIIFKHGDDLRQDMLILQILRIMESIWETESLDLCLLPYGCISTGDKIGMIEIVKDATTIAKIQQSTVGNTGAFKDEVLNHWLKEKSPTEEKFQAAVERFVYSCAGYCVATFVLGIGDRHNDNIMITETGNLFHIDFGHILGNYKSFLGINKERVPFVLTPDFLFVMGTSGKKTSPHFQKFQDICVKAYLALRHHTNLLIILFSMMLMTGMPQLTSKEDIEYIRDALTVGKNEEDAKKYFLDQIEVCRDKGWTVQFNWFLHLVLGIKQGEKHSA
T1 sequence (Q9HCP0 whole entry): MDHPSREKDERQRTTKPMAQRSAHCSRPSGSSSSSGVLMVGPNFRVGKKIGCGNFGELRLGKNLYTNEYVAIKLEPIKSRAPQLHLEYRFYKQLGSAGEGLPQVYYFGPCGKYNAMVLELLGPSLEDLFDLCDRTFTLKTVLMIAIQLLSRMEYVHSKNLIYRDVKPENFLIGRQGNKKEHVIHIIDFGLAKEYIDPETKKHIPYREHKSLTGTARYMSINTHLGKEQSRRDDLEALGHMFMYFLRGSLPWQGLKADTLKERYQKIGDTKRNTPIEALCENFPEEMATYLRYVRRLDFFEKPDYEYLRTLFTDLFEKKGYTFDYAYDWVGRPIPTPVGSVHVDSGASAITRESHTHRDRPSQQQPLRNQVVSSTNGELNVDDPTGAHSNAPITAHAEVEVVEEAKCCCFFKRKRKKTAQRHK
Sequence of Frk (P42685 whole entry): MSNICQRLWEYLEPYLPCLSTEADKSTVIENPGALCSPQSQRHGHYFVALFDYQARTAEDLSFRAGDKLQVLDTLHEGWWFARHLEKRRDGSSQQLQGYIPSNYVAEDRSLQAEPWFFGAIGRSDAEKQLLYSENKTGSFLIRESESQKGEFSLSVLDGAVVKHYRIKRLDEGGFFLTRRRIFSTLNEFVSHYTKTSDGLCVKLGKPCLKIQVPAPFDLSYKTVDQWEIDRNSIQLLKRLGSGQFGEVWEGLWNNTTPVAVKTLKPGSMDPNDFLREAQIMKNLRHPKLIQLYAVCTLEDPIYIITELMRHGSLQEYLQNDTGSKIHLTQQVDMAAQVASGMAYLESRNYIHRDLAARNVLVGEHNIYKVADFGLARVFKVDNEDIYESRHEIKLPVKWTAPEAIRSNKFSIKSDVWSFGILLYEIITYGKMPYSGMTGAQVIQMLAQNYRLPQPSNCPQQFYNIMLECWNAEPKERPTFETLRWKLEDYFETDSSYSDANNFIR
Sequence of PIM1 (P11309 whole entry): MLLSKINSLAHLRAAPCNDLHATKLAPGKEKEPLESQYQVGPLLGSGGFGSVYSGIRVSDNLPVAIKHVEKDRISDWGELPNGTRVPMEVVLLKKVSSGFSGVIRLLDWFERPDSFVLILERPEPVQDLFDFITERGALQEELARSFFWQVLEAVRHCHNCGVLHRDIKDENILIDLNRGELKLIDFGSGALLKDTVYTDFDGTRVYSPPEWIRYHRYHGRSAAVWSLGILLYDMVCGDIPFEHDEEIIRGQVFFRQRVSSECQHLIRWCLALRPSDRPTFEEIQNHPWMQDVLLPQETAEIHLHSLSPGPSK

SMILES | inhibition at 1 µM (BMPR1A) | inhibition at 1 µM (CK1_gamma1) | inhibition at 1 µM (CLK3) | inhibition at 1 µM (CaMKI_delta) | inhibition at 1 µM (EphA3) | inhibition at 1 µM (EphA8) | inhibition at 1 µM (EphB1) | inhibition at 1 µM (Flt1) | inhibition at 1 µM (Frk) | inhibition at 1 µM (IRE2) | inhibition at 1 µM (JAK2) | inhibition at 1 µM (JAK3) | inhibition at 1 µM (Kit) | inhibition at 1 µM (MSSK1) | inhibition at 1 µM (PI3K-G) | inhibition at 1 µM (PIM1) | inhibition at 1 µM (PKC_delta) | inhibition at 1 µM (PKC_theta) | inhibition at 1 µM (Ron) | inhibition at 1 µM (Rsk1) | other results
CC#CC(=O)Nc1cccc2c(Oc3ncccc3-c3ccnc(N[C@H]4CCCNC4)n3)c(C)ccc12 [G-7658] | 2% | 9% | 11.5% | 0.5% | 4.5% | 6.5% | -11.5% | -1.5% | 1.5% | 5.5% | 3% | -15% | -0.5% | 7% | -7% | -6% | 15% | 0% | 4% | 1.5% | inhibition at 1 µM (Rsk3): 9%; inhibition at 1 µM (TXK): 2%; inhibition at 1 µM (TrkB): 0.5%; inhibition at 1 µM (YSK1): -3%; inhibition at 1 µM (eEF-2K): 5%
CCOC(=O)Nc1cccc2c(Oc3ncccc3-c3ccnc(N[C@H]4CCCNC4)n3)c(C)ccc12 [G-1749] | 0% | -1.5% | 7% | 0% | 1% | 1.5% | -17% | -1% | 10.5% | 9.5% | 2.5% | -15.5% | 0% | -1.5% | 16% | -5.5% | 12% | 1.5% | -6% | 3% | inhibition at 1 µM (Rsk3): 10%; inhibition at 1 µM (TXK): 2%; inhibition at 1 µM (TrkB): 0.5%; inhibition at 1 µM (YSK1): 2.5%; inhibition at 1 µM (eEF-2K): 5%

Source: PMC7736581, “Activation of the IRE1 RNase through remodeling of the kinase front pocket by ATP-competitive ligands” (Nature Communications, 2020)
